Like-named read-outs stand apart in the source and are kept apart here.
Legend:
[1] = system: Osteoblastic MC3T3 E1 cells; test: Stimulation of MC3T3 E1 osteoblastic cell number; assay type: cell-based; settings: for ligand concentration that doubled cell number: MC3T3 E1 cells, last 46 hours in culture, DMSO solution
Description: Osteoblastic MC3T3 E1 cells were cultured as reported in Miguel et al, 2005. […] Control cultures were treated only with the DMSO solvent (Ofek et al, 2006).

[2] = target: T1, CB2 receptor (Homo sapiens, UniProt P34972); settings: Hanus et al.; cited from earlier work
T1 construct: expressed in transfected cells; host or cells: COS-7 cells
T1 sequence (P34972 whole entry): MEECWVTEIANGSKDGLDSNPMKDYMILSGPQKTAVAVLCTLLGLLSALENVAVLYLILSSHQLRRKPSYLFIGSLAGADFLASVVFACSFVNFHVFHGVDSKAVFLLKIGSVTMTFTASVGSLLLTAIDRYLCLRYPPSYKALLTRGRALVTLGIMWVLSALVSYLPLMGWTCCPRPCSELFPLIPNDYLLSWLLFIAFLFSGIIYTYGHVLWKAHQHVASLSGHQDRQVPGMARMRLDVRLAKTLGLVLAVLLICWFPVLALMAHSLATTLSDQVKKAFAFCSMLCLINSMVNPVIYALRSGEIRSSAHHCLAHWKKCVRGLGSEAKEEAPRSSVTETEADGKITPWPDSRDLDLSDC

[3] = system: osteoblastogenesis / osteoclastogenesis; settings: cited from earlier work
[4] = target: T2, CB1 receptor (Rattus norvegicus, UniProt P20272); settings: cited from earlier work
T2 construct: synaptosomal membranes were prepared from the brains of Sabra rats by homogenization and gradient centrifugation; from tissue; host or cells: brain of Sabra rats, synaptosomal membranes
T2 sequence (P20272 whole entry): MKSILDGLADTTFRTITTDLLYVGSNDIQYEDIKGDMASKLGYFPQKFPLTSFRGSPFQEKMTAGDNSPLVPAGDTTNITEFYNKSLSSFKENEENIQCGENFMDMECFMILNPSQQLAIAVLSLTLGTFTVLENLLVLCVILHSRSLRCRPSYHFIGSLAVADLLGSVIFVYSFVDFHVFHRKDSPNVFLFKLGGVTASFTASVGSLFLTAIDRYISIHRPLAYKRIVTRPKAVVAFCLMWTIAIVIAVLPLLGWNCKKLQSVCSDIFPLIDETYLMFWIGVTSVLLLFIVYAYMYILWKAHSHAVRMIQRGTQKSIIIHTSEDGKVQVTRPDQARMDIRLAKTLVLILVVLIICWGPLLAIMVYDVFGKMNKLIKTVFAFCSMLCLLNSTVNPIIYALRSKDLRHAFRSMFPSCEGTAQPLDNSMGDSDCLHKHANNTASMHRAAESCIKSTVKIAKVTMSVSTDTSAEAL

[5] = system: mice; settings: cited from earlier work
[6] = system: OVX mouse model; test: Rescue of ovariectomy (OVX)-induced trabecular bone loss, μCT of L3 vertebrae; assay type: in vivo
Description: Data are mean±S.E. obtained in 6 mice per condition. (*) p<0.05.
Using this experimental system for testing bone anabolic activity, OVXed mice are left untreated to allow for bone loss to occur, followed by a treatment period intended for reversal of the bone loss (Alexander et al, 2001).

[7] = target: T2, CB1 receptor; test: CB1 receptor binding, [3H]HU-243 displacement, synaptosomal membranes; parameters: species or system Sabra rats
Description: For CB1 receptor binding, synaptosomal membranes were prepared from the brains of Sabra rats by homogenization and gradient centrifugation (Devane et al, 1992). For CB2 receptor binding assay, COS-7 cells were transfected with plasmids containing CB2 cDNA, and crude membranes were prepared (Munro et al, 1993).
Bound and free radioligands were separated by centrifugation. The data were normalized to 100% of specific binding, which was determined with 50 nM unlabeled HU-243.

SMILES | ligand concentration that doubled cell number [1] | binding to CB2 receptor [2] | in vitro osteoblastogenesis [3] | in vitro osteoclastogenesis [3] | binding to CB1 receptor ([4]; Hanus et al.) | Ki ([4]; read-out: Ki CB1, HU-308, from Hanus et al, 1999) | OVX-induced bone loss ([5]; another mouse model, Bab et al, 2008) | bone formation ([5]; mice, Ofek et al, 2006) | bone resorption ([5]; mice, Ofek et al, 2006) | ovariectomy (OVX)-induced bone loss ([5]; mice, Ofek et al, 2006) | reversal of OVX-induced trabecular bone loss ([6]; 20 mg/Kg/day intraperitoneal for 6 weeks, starting 6 weeks after OVX, L3 vertebrae μCT) | in vitro skeletal activity compared to HU-308 ([1]; MC3T3 E1 cell number assay) | Ki [7] | binding to CB1 receptor ([7]; present example) | rescue of OVX-induced trabecular bone loss ([6]; 0.2 mg/Kg/day intraperitoneal for 6 weeks, starting 6 weeks after OVX, L3 vertebrae μCT) | effect compared with reversal of bone volumetric density by parathyroid hormone (1-34) ([6]; comparison with Alexander et al, 2001) | Kd ([4]; radioligand probe, read-out: dissociation constant for the CB1 receptor)
CCCCCCC(C)(C)c1cc(OC)c([C@@H]2C=C(CO)[C@@H]3C[C@H]2C3(C)C)c(OC)c1 [HU-308] | 10^−8 M | potent binding to CB2 receptor | stimulates | inhibits | did not bind to CB1 receptor | > 10 µM | rescues | stimulates bone formation | inhibits bone resorption | attenuating | 50% |  |  |  |  |  | 
CCCCCCC(C)(C)c1cc(OC)c([C@@H]2C=C(CO)C3CC2C3(C)C)c(OC)c1 (single isomer, unassigned; (-)) [HU-433, (−)-2-(3-myrtenyl)-5-dimethylheptyl resorcinol] | 10^−11 M |  |  |  |  |  |  |  |  |  |  | 1000 fold | > 20 µM | did not bind to CB1 receptor | significantly rescued almost the entire OVX-induced trabecular bone loss | substantially greater | 
CCCCCCC(C)(C)c1cc(O)c2c(c1)OC(C)(C)[C@@H]1CC[C@@H](CO)C[C@@H]21 [[^3H]HU-243] |  |  |  |  |  |  |  |  |  |  |  |  |  |  |  |  | 0.045 ± 0.007 nM
